The source of these data is patent publication US20220079931A1, “ESTROGEN RECEPTOR PROTEIN DEGRADERS” (THE REGENTS OF THE UNIVERSITY OF MICHIGAN, priority 2019, published 2022).

Where only a bound is given, the exact number is not on record here.

In one test the test system is MDA-MB-231. As to the kind of experiment: Cell proliferation in triple-negative breast cancer cells. It counts as cell-based, human. Conditions: MDA-MB-231 triple-negative breast cancer cells. The procedure: Cell Growth Assay. Cells were seeded at 1500/well in 96 well plates overnight. One day after seeding, they were treated with indicated doses of compounds. The growth of the cells was evaluated by colorimetric WST-8 assay 4 days after the compound treatment following the instructions of the manufacturer, Cayman Chemical, Ann Arbor, Mich.
Fulvestrant achieves an Imax value of 43.8%. […] RAD1901, a previously reported SERD molecule^18, achieves an Imax value of 25.7%.

In test [1] the target is T1, ERα (Homo sapiens, UniProt P03372).
T1 sequence (P03372 1-595): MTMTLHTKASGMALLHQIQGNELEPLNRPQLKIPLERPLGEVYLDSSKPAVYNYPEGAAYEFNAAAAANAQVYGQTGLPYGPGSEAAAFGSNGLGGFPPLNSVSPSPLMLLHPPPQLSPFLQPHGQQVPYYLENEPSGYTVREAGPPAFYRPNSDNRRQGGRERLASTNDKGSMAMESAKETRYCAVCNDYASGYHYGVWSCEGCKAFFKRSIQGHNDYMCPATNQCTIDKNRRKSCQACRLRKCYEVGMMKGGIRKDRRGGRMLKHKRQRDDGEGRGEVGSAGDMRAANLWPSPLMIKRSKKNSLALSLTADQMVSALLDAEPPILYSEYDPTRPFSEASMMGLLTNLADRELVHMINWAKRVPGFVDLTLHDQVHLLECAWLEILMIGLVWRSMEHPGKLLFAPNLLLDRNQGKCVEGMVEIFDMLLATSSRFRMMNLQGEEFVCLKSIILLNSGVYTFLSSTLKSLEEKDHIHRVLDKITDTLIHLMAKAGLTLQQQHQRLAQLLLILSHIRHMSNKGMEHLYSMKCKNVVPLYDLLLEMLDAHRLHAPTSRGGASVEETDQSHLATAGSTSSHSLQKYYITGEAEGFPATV
As to the kind of experiment: ER degradation by Western blotting in T47D cells. It counts as cell-based. Details: Dmax: dose or concentration left out as unconfirmed. The procedure: FIG. 8 is an image showing the ERα degradation dose-response Western blotting for compound 32 at 4 h in T47D cells. […] Cell Culture. Human breast cancer cell lines MCF-7 (ATCC® HTB-22TM) and T47D (ATCC® HTB-133TM) were purchased from the American Type Culture Collection (ATCC), Manassas, Va., and maintained and cultured in Dulbecco's Modified Eagle's medium (DMEM) containing 10% fetal bovine serum, 1 unit/ml of penicillin and 1 μg/ml of streptomycin. Cells with 3-8 passages after purchase were used in experiments as indicated. Western Blot Analysis. Western blot analysis was performed essentially as described previously (Hu et al, 2015, PMID: 26358219). Cells treated with indicated compounds were lysed in Radioimmunoprecipitation Assay Protein Lysis and Extraction Buffer (25 mmol/L Tris.HCl, pH 7.6, 150 mmol/L NaCl, 1% Nonidet P-40, 1% sodium deoxycholate, and 0.1% sodium dodecyl sulfate) containing proteinase inhibitor cocktail (Roche Diagnostics, Mannheim, Germany). After determination of protein concentration by BCA assay (Fisher Scientific, Pittsburgh, Pa.), equal amounts of total protein were electrophoresed through 10% SDS-polyacrylamide gels. The separated protein bands were transferred onto PVDF membranes (GE Healthcare Life Sciences, Marlborough, Mass.) and blotted against different antibodies, as indicated. The human estrogen receptor a antibodies (AB16460) were purchased from Abeam, Inc., Cambridge, Mass. The membranes were reblotted with horseradish peroxidase-conjugated anti-glyceraldehyde-3-phosphate dehydrogenase antibody ([…]) from Sigma-Aldrich Corporation, St. Louis, Mo. The blots were scanned and the band intensities were quantified using GelQuant.NET software as described in biochemlabsolutions.com. The relative mean intensity of target proteins was expressed after normalization to the intensity of glyceraldehyde-3-phosphate dehydrogenase bands from individual repeats.
Background: In western blotting, separated proteins are transferred to a membrane and probed.

Test [2] has as its target T1, ERα. As to the kind of experiment: ER degradation by Western blotting in MCF-7 cells. It counts as cell-based. Details: host or cells: MCF-7. The procedure: FIG. 1 is an image showing the Western blotting analysis of ER protein in MCF-7 cells treated with Compounds of the Disclosure and control compounds. Cells were treated with different compounds for 4 h and whole cell lysates were then analyzed by Western blotting to examine the level of ER protein. GADPH protein was used for the loading control. The numbers below the panel represent the ERα/GADPH ratio normalized with the DMSO control at 100.
FIG. 2 is an image showing the Western blotting analysis of ER protein in the MCF-7 cells treated with indicated compounds at 1 nM, 10 nM and 100 nM. MCF-7 cells were treated with different compounds for 4 h and whole cell lysates were analyzed by Western blotting to examine the level of ER protein. GADPH protein was used for the loading control. The numbers below the panel represent the ERα/GADPH ratio normalized with the DMSO control at 100.
FIG. 7 is an image showing the ERα degradation dose-response Western blotting for compound 32 at 4 h in MCF-7 cells.
FIG. 9 is an image showing the time course of ERα degradation by Western blotting by compound 32 (30 nM) and fulvestrant (30 nM) in the MCF-7 cells.
Cell Culture. Human breast cancer cell lines MCF-7 (ATCC® HTB-22™) and T47D (ATCC® HTB-133™) were purchased from the American Type Culture Collection (ATCC), Manassas, Va., and maintained and cultured in Dulbecco's Modified Eagle's medium (DMEM) containing 10% fetal bovine serum, 1 unit/ml of penicillin and 1 μg/ml of streptomycin. Cells with 3-8 passages after purchase were used in experiments as indicated.
Western Blot Analysis. Western blot analysis was performed essentially as described previously (Hu et al, 2015, PMID: 26358219). Cells treated with indicated compounds were lysed in Radioimmunoprecipitation Assay Protein Lysis and Extraction Buffer (25 mmol/L Tris.HCl, pH 7.6, 150 mmol/L NaCl, 1% Nonidet P-40, 1% sodium deoxycholate, and 0.1% sodium dodecyl sulfate) containing proteinase inhibitor cocktail (Roche Diagnostics, Mannheim, Germany). After determination of protein concentration by BCA assay (Fisher Scientific, Pittsburgh, Pa.), equal amounts of total protein were electrophoresed through 10% SDS-polyacrylamide gels. The separated protein bands were transferred onto PVDF membranes (GE Healthcare Life Sciences, Marlborough, Mass.) and blotted against different antibodies, as indicated. The human estrogen receptor a antibodies (AB16460) were purchased from Abeam, Inc., Cambridge, Mass. The membranes were reblotted with horseradish peroxidase-conjugated anti-glyceraldehyde-3-phosphate dehydrogenase antibody (G9295) from Sigma-Aldrich Corporation, St. Louis, Mo. The blots were scanned and the band intensities were quantified using GelQuant.NET software as described in biochemlabsolutions.com. The relative mean intensity of target proteins was expressed after normalization to the intensity of glyceraldehyde-3-phosphate dehydrogenase bands from individual repeats.

Turning to `CCN(CCCCCOCC(=O)N[C@H](C(=O)N1C[C@H](O)C[C@H]1C(=O)N[C@@H](C)c1ccc(-c2scnc2C)cc1)C(C)(C)C)CCOc1ccc(C(=O)c2c(-c3ccc(O)cc3)sc3cc(O)ccc23)cc1` [compound 32, (2S,4R)-1-((S)-2-(2-((5-(Ethyl(2-(4-(6-hydroxy-2-(4-hydroxyphenyl)benzo[b]thiophene-3-carbonyl)phenoxy)ethyl)amino)pentyl)oxy)acetamido)-3,3-dimethylbutanoyl)-4-hydroxy-N—((S)-1-(4-(4-methylthiazol-5-yl)phenyl)ethyl)pyrrolidine-2-carboxamide], the cell proliferation inhibition result in the test on MDA-MB-231 was “does not exhibit the cell proliferation inhibition effects”. In addition, at ERα [1] (T47D cells, 1 μM), the hook effect result is “demonstrates a hook effect”. Besides, the DC50 amounted to 0.43 nM on ERα [1] (T47D cells, 4 h) and 0.17 nM at ERα [2] (4 h treatment, read-out: DC50 (concentration to achieve 50% of protein degradation)). The Dmax on ERα [1] (T47D, read-out: maximum degradation) is greater than 95%. Further, the “reduction of ER protein level at 1 h” value at ERα [2] (30 nM, 1 h treatment) was greater than 80%. Moreover, on ERα [2] (30 nM, 3 h), the “ER degradation at the 3 h time-point” value was “essentially complete ER degradation”. Also, the “maximum ER degradation” value at ERα [2] (at concentrations as low as 5 nM) is listed as greater than 95%.
